Measurements as given in patent publication US20240116985A1, “STAPLED PEPTIDES AND METHODS THEREOF” (priority 2020, published 2024).
In brackets after ≈: the same amount, converted by molar mass. Like-named read-outs stand apart in the source and are kept apart here.

Legend:
[1] = target: T1, full-length beta-Catenin (Uniprot ID P35222) (Homo sapiens, UniProt P35222); experiment: Fluorescence polarization IC50 (beta-catenin / 5FAM-TCF4 10-53 competition); assay type: binding
T1 construct: 10 nM full-length beta-Catenin (Uniprot ID P35222)
T1 sequence (P35222 1-781): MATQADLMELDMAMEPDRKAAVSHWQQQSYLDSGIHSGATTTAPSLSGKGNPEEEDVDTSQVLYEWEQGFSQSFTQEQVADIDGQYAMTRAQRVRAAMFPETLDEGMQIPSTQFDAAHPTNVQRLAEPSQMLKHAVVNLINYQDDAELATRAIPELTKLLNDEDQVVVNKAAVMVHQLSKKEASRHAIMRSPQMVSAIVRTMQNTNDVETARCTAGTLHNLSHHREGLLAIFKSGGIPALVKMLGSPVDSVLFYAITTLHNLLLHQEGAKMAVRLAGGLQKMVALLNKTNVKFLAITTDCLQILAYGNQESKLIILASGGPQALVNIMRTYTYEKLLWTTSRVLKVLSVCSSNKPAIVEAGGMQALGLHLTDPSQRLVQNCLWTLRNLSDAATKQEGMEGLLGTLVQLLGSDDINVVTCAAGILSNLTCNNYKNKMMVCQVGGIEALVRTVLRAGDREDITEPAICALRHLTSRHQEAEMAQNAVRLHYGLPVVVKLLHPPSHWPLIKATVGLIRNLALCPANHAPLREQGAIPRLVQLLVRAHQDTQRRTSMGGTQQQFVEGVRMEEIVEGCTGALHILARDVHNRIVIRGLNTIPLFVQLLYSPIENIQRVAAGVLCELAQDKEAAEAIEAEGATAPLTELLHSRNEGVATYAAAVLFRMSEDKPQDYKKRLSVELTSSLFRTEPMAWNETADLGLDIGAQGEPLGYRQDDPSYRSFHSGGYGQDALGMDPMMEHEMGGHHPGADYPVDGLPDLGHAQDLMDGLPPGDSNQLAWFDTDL

CHI Log D procedure = assay type: physicochemical; settings: for CHI Log D: pH 7.4; for chromatographic logD: pH 7.4, CHI Log D
Solubility in PBS = assay type: physicochemical
Method in brief: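 HPLC quantitation of peptide remaining in the PBS supernatant after ultracentrifugation, referenced to a 50 μM solution in DMSO.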

[2] = fluorescence polarization, read-out: beta-Catenin FP IC50

Compound	IC50 [1, 2] [µM]	IC50 ([1]; read-out: FP EC50) [µM]	CHI Log D (CHI Log D procedure)	Solubility (Solubility in PBS) [µM]	chromatographic logD (CHI Log D procedure)	Solubility (Solubility in PBS; Solubility (uM)) [µM]
CC(=O)N1CCC[C@]12CC=CCCCC1(CCCC=CCCCCCC[C@@](C)(C(=O)N[C@@H](Cc3ccccc3)C(=O)N[C@@H](Cc3csc4ccccc34)C(=O)N[C@@H](Cc3c[nH]cn3)C(N)=O)NC(=O)[C@H](CC(N)=O)NC(=O)[C@H](Cc3ccccc3)NC(=O)[C@H](C)NC(=O)[C@H](C)NC(=O)[C@H](CC(=O)O)NC(=O)[C@H](CC(=O)O)NC1=O)NC(=O)[C@H](C)NC(=O)[C@H](CC(=O)O)NC2=O (stereo partly drawn) [I-465, Ac-PL3-Asp-Ala-B5-Asp-Asp-Ala-Ala-Phe-Asn-S8-Phe-BztA-His-NH2]	0.081	0.081	2.023	40 (≈ 72.9 µg/mL)		
CC(=O)N1CCC[C@]12CC=CCCCC1(CCCC=CCCCCCC[C@@](C)(C(=O)N[C@@H](Cc3ccccc3)C(=O)N[C@@H](Cc3csc4ccccc34)C(=O)N[C@@H](Cc3c[nH]cn3)C(N)=O)NC(=O)[C@H](CC(N)=O)NC(=O)[C@H](Cc3ccccc3)NC(=O)[C@H](C)NC(=O)[C@H](C)NC(=O)[C@H](CC(=O)O)NC(=O)[C@H](CC(=O)O)NC1=O)NC(=O)[C@H](C)NC(=O)[C@H](CC(=O)O)NC2=O (stereo partly drawn) [I-466, Ac-PL3-Asp-Ala-B5-Asp-Asp-Ala-Ala-Phe-Asn-S8-Phe-BztA-His-NH2]	0.019	0.019	2.069	50 (≈ 91.1 µg/mL)		
CC[C@H](C)[C@@H]1NC(=O)[C@H](CC(=O)O)NC(=O)[C@]2(CC=CCCCC3(CCCC=CCCCCCC[C@@](C)(C(=O)N[C@@H](Cc4ccccc4)C(=O)N[C@@H](Cc4csc5ccccc45)C(=O)N[C@@H](CCC(N)=O)C(N)=O)NC(=O)[C@H](CC(N)=O)NC(=O)[C@H](Cc4ccccc4)NC(=O)[C@H](C)NC(=O)[C@H](C)NC(=O)[C@H](CC(=O)O)NC(=O)[C@H](CC(=O)O)NC3=O)NC1=O)CCCN2C(C)=O (stereo partly drawn) [I-467, Ac-PL3-Asp-Ile-B5-Asp-Asp-Ala-Ala-Phe-Asn-S8-Phe-BztA-Gln-NH2]	0.044	0.044	2.255	50 (≈ 92.8 µg/mL)		
CC[C@H](C)[C@@H]1NC(=O)[C@H](CC(=O)O)NC(=O)[C@]2(CC=CCCCC3(CCCC=CCCCCCC[C@@](C)(C(=O)N[C@@H](Cc4ccccc4)C(=O)N[C@@H](Cc4csc5ccccc45)C(=O)N[C@@H](CCC(N)=O)C(N)=O)NC(=O)[C@H](CC(N)=O)NC(=O)[C@H](Cc4ccccc4)NC(=O)[C@H](C)NC(=O)[C@H](C)NC(=O)[C@H](CC(=O)O)NC(=O)[C@H](CC(=O)O)NC3=O)NC1=O)CCCN2C(C)=O (stereo partly drawn) [I-468, Ac-PL3-Asp-Ile-B5-Asp-Asp-Ala-Ala-Phe-Asn-S8-Phe-BztA-Gln-NH2]	0.027	0.027	2.292	41 (≈ 76.1 µg/mL)		
CC[C@H](C)[C@@H]1NC(=O)[C@H](CC(=O)O)NC(=O)[C@]2(CC=CCCCC3(CCCC=CCCCCCC[C@@](C)(C(=O)N[C@@H](Cc4ccccc4)C(=O)N[C@@H](Cc4csc5ccccc45)C(=O)N[C@@H](Cc4c[nH]cn4)C(N)=O)NC(=O)[C@H](CCC(N)=O)NC(=O)[C@H](Cc4ccccc4)NC(=O)[C@H](C)NC(=O)[C@H](C)NC(=O)[C@H](CCC(=O)O)NC(=O)[C@H](CC(=O)O)NC3=O)NC1=O)CCCN2C(C)=O (stereo partly drawn) [I-471, Ac-PL3-Asp-Ile-B5-Asp-Glu-Ala-Ala-Phe-Gln-S8-Phe-BztA-His-NH2]	0.052				2.43	13 (≈ 24.6 µg/mL)
CC[C@H](C)[C@@H]1NC(=O)[C@H](CC(=O)O)NC(=O)[C@]2(CC=CCCCC3(CCCC=CCCCCCC[C@@](C)(C(=O)N[C@@H](Cc4ccccc4)C(=O)N[C@@H](Cc4csc5ccccc45)C(=O)N[C@@H](Cc4c[nH]cn4)C(N)=O)NC(=O)[C@H](CC(N)=O)NC(=O)[C@H](Cc4ccccc4)NC(=O)[C@H](C)NC(=O)[C@H](C)NC(=O)[C@H](CCC(=O)O)NC(=O)[C@H](CC(=O)O)NC3=O)NC1=O)CCCN2C(C)=O (stereo partly drawn) [I-472, Ac-PL3-Asp-Ile-B5-Asp-Glu-Ala-Ala-Phe-Asn-S8-Phe-BztA-His-NH2]	0.062				2.42	36 (≈ 67.6 µg/mL)
CC[C@@H]1NC(=O)[C@H](CC(=O)O)NC(=O)[C@]2(CC=CCCCC3(CCCC=CCCCCCC[C@@](C)(C(=O)N[C@@H](Cc4ccccc4)C(=O)N[C@@H](Cc4csc5ccccc45)C(=O)N[C@@H](CCC(N)=O)C(N)=O)NC(=O)[C@H](CC(N)=O)NC(=O)[C@H](Cc4ccccc4)NC(=O)[C@H](C)NC(=O)[C@H](C)NC(=O)[C@H](CCC(=O)O)NC(=O)[C@H](CC(=O)O)NC3=O)NC1=O)CCCN2C(C)=O (stereo partly drawn) [I-473, Ac-PL3-Asp-Abu-B5-Asp-Glu-Ala-Ala-Phe-Asn-S8-Phe-BztA-Gln-NH2]	0.121	0.121	2.076	39 (≈ 71.8 µg/mL)		
CC[C@@H]1NC(=O)[C@H](CC(=O)O)NC(=O)[C@]2(CC=CCCCC3(CCCC=CCCCCCC[C@@](C)(C(=O)N[C@@H](Cc4ccccc4)C(=O)N[C@@H](Cc4csc5ccccc45)C(=O)N[C@@H](CCC(N)=O)C(N)=O)NC(=O)[C@H](CC(N)=O)NC(=O)[C@H](Cc4ccccc4)NC(=O)[C@H](C)NC(=O)[C@H](C)NC(=O)[C@H](CCC(=O)O)NC(=O)[C@H](CC(=O)O)NC3=O)NC1=O)CCCN2C(C)=O (stereo partly drawn) [I-474, Ac-PL3-Asp-Abu-B5-Asp-Glu-Ala-Ala-Phe-Asn-S8-Phe-BztA-Gln-NH2]	0.043	0.043	2.114	50 (≈ 92.1 µg/mL)		
CC[C@@H](C)[C@@H]1NC(=O)[C@H](CC(=O)O)NC(=O)[C@]2(CC=CCCCC3(CCCC=CCCCCCC[C@@](C)(C(=O)N[C@@H](Cc4ccccc4)C(=O)N[C@@H](Cc4csc5ccccc45)C(=O)N[C@@H](CCC(N)=O)C(N)=O)NC(=O)[C@H](CC(N)=O)NC(=O)[C@H](Cc4ccccc4)NC(=O)[C@H](C)NC(=O)[C@H](C)NC(=O)[C@H](CCC(=O)O)NC(=O)[C@H](CC(=O)O)NC3=O)NC1=O)CCCN2C(C)=O (stereo partly drawn) [I-475, Ac-PL3-Asp-aIle-B5-Asp-Glu-Ala-Ala-Phe-Asn-S8-Phe-BztA-Gln-NH2]	0.102	0.102	2.277	43 (≈ 80.4 µg/mL)		
CC[C@@H](C)[C@@H]1NC(=O)[C@H](CC(=O)O)NC(=O)[C@]2(CC=CCCCC3(CCCC=CCCCCCC[C@@](C)(C(=O)N[C@@H](Cc4ccccc4)C(=O)N[C@@H](Cc4csc5ccccc45)C(=O)N[C@@H](CCC(N)=O)C(N)=O)NC(=O)[C@H](CC(N)=O)NC(=O)[C@H](Cc4ccccc4)NC(=O)[C@H](C)NC(=O)[C@H](C)NC(=O)[C@H](CCC(=O)O)NC(=O)[C@H](CC(=O)O)NC3=O)NC1=O)CCCN2C(C)=O (stereo partly drawn) [I-476, Ac-PL3-Asp-aIle-B5-Asp-Glu-Ala-Ala-Phe-Asn-S8-Phe-BztA-Gln-NH2]	0.048	0.048	2.317	49 (≈ 91.6 µg/mL)		
CC(=O)N1CCC[C@]12CC=CCCCC1(CCCC=CCCCCCC[C@@](C)(C(=O)N[C@@H](Cc3ccccc3)C(=O)N[C@@H](Cc3csc4ccccc34)C(=O)N[C@@H](CCC(N)=O)C(N)=O)NC(=O)[C@H](CCC(N)=O)NC(=O)[C@H](Cc3ccccc3)NC(=O)[C@H](C)NC(=O)[C@H](C)NC(=O)[C@H](CCC(=O)O)NC(=O)[C@H](CC(=O)O)NC1=O)NC(=O)[C@H]([C@@H](C)O)NC(=O)[C@H](CC(=O)O)NC2=O (stereo partly drawn) [I-477, Ac-PL3-Asp-Thr-B5-Asp-Glu-Ala-Ala-Phe-Gln-S8-Phe-BztA-Gln-NH2]	0.119				2	49 (≈ 91.7 µg/mL)
CC(=O)N1CCC[C@]12CC=CCCCC1(CCCC=CCCCCCC[C@@](C)(C(=O)N[C@@H](Cc3ccccc3)C(=O)N[C@@H](Cc3csc4ccccc34)C(=O)N[C@@H](Cc3cn(C)cn3)C(N)=O)NC(=O)[C@H](CC(N)=O)NC(=O)[C@H](Cc3ccccc3)NC(=O)[C@H](C)NC(=O)[C@H](C)NC(=O)[C@H](CCC(=O)O)NC(=O)[C@H](CC(=O)O)NC1=O)NC(=O)[C@H](C)NC(=O)[C@H](CC(=O)O)NC2=O (stereo partly drawn) [I-478, Ac-PL3-Asp-Ala-B5-Asp-Glu-Ala-Ala-Phe-Asn-S8-Phe-BztA-1MeH-NH2]	0.071	0.071	2.052	42 (≈ 77.7 µg/mL)		
